Three compounds from patent EP0181129B1, “N6-substituted deoxyribose analogs of adenosines” (WARNER-LAMBERT COMPANY, priority 1984, dated 1986) can be followed below.

For one assay, the target named is T1, adenosine A1 receptor (Rattus norvegicus, UniProt P25099).
T1 construct: brain minus cerebellum and brainstem from male Long Evans rats (150-200 g) was homogenized; from tissue; host or cells: rat whole brain minus cerebellum and brainstem, membrane homogenate
T1 sequence (P25099 1-326): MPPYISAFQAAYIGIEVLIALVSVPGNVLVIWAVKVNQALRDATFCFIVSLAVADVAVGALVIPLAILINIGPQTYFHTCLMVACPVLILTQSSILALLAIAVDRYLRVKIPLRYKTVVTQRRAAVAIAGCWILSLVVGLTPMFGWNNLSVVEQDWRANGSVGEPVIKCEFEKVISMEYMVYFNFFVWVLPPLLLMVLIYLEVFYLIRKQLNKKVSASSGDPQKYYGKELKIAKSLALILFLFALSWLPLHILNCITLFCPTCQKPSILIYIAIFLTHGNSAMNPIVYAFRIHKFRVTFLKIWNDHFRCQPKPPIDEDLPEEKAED
Description: Adenosine Receptor Binding - A1 Receptor Affinity (RBA1), [3H]-CHA displacement. The conditions noted are these: 1.0 nM [3H]-CHA, rat whole brain membranes, one hour at 25°C; read-out: Receptor Binding RBA—1. The method, then: While brain minus cerebellum and brainstem from male Long Evans rats (150-200 g) was homogenized in 30 volumes of ice-cold 0.05 M Tris-CHI buffer pH 7.7 using a Brinkman Polytron PT-10, (setting number 6 for 20 seconds) and centrifuged for ten minutes at 20,000 x g (Sorvall RC-2), 4°C. The supernatant was discarded, and the pellet was resuspended and centrifuged as before. The pellet was resuspended in 20 ml Tris-HCI buffer containing two International Units/ml of adenosine deaminase (Sigma type III from calf intestinal mucosa), incubated at 37°C for 30 minutes, then subsequently at 0°C for ten minutes. The homogenate was again centrifuged, and the final pellet was resuspended in ice-cold 0.05 M Tris-HCI buffer pH 7.7 to a concentration of 20 mg/ml original wet tissue weight and used immediately.
Tissue homogenate (10 mg/ml) was incubated in 0.05 M Tris-HCI buffer pH 7.7 containing 1.0 nM (^3H]-N^e-cyclohexyladenosine ([^3H]-CHA) with or without tests agents in triplicate for one hour at 25°C. Incubation volume was 2 ml. Unbound [^3H]-CHA was separated by rapid filtration under reduced pressure through Whatman glass fiber (GF/B) filters. The filters were rinsed three times with 5 ml of ice cold 0.05 M Tris-HCI buffer pH 7.7. The radio-labeled ligand retained on the filter was measured by liquid scintillation spectrophotometry after shaking the filters for one hour or longer on a mechanical shaker in 10 ml of Beckman Ready-Solv HP scintillation cocktail.
Nonspecific binding was defined as the binding which occurred in the presence of 1 mM theophylline. […] The Scatchard plot was calculated by linear regression of the line obtained by plotting the amount of radioligand bound (pmoles/gram of tissue) [formula] Since the amount of radioligand bound was a small fraction of the total amount added, free radioligand was defined as the concentration (nM) of radioligand added to the incubation mixture. The Hill coefficient was calculated by linear regression of the line obtained by plotting the log of the bound radioligand vs the log of the [formula] The maximal number of binding sites (Bmax) was calculated from the Scatchard plot.

The target in another assay is T2, adenosine A2 receptor (Rattus norvegicus, UniProt P30543).
T2 construct: Brains were thawed and then kept on ice while the striata were dissected out; tissue Pel-Freez (Rogers, Arkansas); host or cells: rat striatum, membranes
Put plainly: Adenosine Receptor Binding - A2 Receptor Affinity (RBA2), [3H]NECA displacement. The conditions noted are these: 4 nM [3H]NECA with 50 nM N6-cyclopentyladenosine, rat striatal membranes, 60 minutes at 25°C; read-out: Receptor Binding RBA—2. The method, then:
Brains from 200-500 g mixed sex Sprague-Dawley rats were purchased from Pel-Freez (Rogers, Arkansas). Fresh brains from male Long-Evans hooded rats (Blue Spruce Farms, Altamont, NY) gave essentially indentical results. Brains were thawed and then kept on ice while the striata were dissected out. Striata were disrupted in 10 vol of ice-cold 50 mM Tris.HCI (pH 7.7 at 25°C, pH 8.26 at 5°C) (Tris) for 30 seconds in a Polytron PT―10 (Brinkmann) at setting 5. The suspension was centrifuged at 50,000 xg for ten minutes, the supernatant discarded, the pellet resuspended in 10 vol ice-cold Tris as above, recentrifuged, resuspended at 1 g/5 ml, and stored in plastic vials at -70°C (stable for at least six months). When needed, tissue was thawed at room temperature, disrupted in a Polytron, and kept on ice until used.
All incubations were for 60 minutes at 25°C in 12x75 mm glass tubes containing 1 ml Tris with 5 mg original tissue weight of rat weight of rat striatal membranes, 4 nM [^3H]-N-ethyl adenosine-5'-carboxamide ([^3H]NECA), 50 nM N^6-cyclopentyladenosine (to eliminate A1 receptor binding), 10 mM MgCl2, 0.1 units/ml, of adenosine deaminase and 1% dimethylsulfoxide. N^6-Cyclopentyladenosine was dissolved at 10 mM in 0.02 N HCI and diluted in Tris. Stock solutions and dilutions of N^6-cyclopentyladenosine could be stored at -20°C for several months. Test compounds were dissolved at 10 mM in dimethylsulfoxide or the same day as the experiment, and diluted in dimethylsulfoxide to 100x the final incubation concentration. Control incubations received an equal volume (10 µl) of dimethylsulfoxide; the resulting concentration of dimethylsulfoxide had no effect on binding. [^3H]NECA was diluted to 40 nM in Tris. The membrane suspension (5 mg/0.79 ml) contained sufficient MgCl2 and adenosine deaminase to give 10 mM and 0.1 units/ml, respectively, final concentration in the incubation. […] After all additions, the rack of tubes was vortexed, and the tubes were then incubated for 60 min at 25°C in a shaking water bath. The rack of tubes was vortexed an additonal time halfway through the incubation.
Incubations were terminated by filtration through 2.4 cm GF/B filters under reduced pressure. Each tube was filtered as follows: the contents of the tube were poured onto the filter, 4 ml of ice-cold Tris were added to the tube and the contents poured onto the filter, and the filter was washed twice with 4 ml of ice-cold Tris. The filtration was complete in about twelve seconds. Filters were put in scintillation vials, 8 ml of Formula 947 scintillation fluid added, and the vials left overnight, shaken, and counted in a liquid scintillation counter at 40% efficiency.
Nonspecific binding was defined as binding in the presence of […] N^6-cyclopentyladenosine, and specific binding was defined as total binding minus nonspecific binding. The IC50 was calculated by weighted nonlinear least squares curve-fitting to the mass-action equation. [formula] • where Y is cpm bound T is cpm total binding without drug S is cpm specific binding without drug D is the concentration of drug • and K is the IC50 of the drug Weighting factors were calculated under the assumption that the standard deviation was proportional to the predicted value of Y. Nonspecific binding was treated as a very large (infinite) concentration of drug in the computer analysis.

T2 sequence (P30543 whole entry): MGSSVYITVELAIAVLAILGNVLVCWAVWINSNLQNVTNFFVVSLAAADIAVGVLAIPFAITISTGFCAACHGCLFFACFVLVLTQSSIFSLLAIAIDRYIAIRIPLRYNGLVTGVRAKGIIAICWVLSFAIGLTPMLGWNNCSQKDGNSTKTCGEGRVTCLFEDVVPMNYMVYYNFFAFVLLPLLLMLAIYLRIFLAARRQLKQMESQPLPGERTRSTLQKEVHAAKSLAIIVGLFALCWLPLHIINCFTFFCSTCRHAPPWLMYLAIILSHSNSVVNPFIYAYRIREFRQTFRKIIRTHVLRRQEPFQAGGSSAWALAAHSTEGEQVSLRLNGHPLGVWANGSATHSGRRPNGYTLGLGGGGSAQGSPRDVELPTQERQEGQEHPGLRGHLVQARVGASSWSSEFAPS

On to `C[C@H]1O[C@@H](n2cnc3c(NC4CCCc5ccccc54)ncnc32)[C@H](O)[C@@H]1O` (stereo partly drawn) [Example 19, N^6-1-Tetralinyl-5' -deoxyadenosine], for which the IC50 worked out at 1.37 µM on adenosine A1 receptor and 71.3 µM on adenosine A2 receptor.
With `C[C@H]1O[C@@H](n2cnc3c(NCc4cccc5ccccc45)ncnc32)[C@H](O)[C@@H]1O` [Example 20, N^6-α-Naphthylmethyl-5' -deoxyadenosine], the IC50 was 1.01 µM on adenosine A1 receptor and 0.323 µM at adenosine A2 receptor.
Consider `O[C@@H]1[C@H](O)[C@@H](CCl)O[C@H]1n1cnc2c(NC3CCc4ccccc43)ncnc21` (stereo partly drawn) [Example 23, (R)-N^6(1-Indanyl)-5'-deoxy-5'-chloroadenosine], for which the IC50 was found to be 0.08 µM at adenosine A1 receptor and 3.04 µM on adenosine A2 receptor.
